Where two headings read alike, the source gives them in different places.
What was measured:
[1] = system: Staphylococcus aureus (strain Newman); assay: Bacterial studies, blue light 9.5 J/cm^2 or dark, drop plate CFU (Examples 4-6); type: cell-based; settings: for toxicity / eradication of S. aureus: dilution 1:1 with bacterial suspension; for toxicity to S. aureus: dilution 1:100
Method: (§1) Briefly, the components were mixed and dissolved in warm water (˜50° C.) before evaporation of the solvent at 45° C. for 15 min with a rotatory evaporator. The resulting NADES were transferred to polypropylene tubes with a tight cap. The individual components of each NADES were also prepared as solutions in MilliQ water in a concentration similar to the concentration in the final NADES preparation. All samples were diluted 1:1 with bacterial suspension (OD600 0.03) or 1:50, 1:100 and 1:200 with phosphate buffered saline (PBS, pH 7.4, Lonza, Verviers, Belgium) prior to dilution 1:1 with the bacterial suspension immediately before the bacterial studies.
(§2) The overnight cultures were centrifuged (4000 g, 22° C., 10 min), the medium replaced and diluted with PBS to OD600 0.03. The bacterial suspensions were mixed 1:1 with the samples described in the previous paragraph. A volume of 200 μl from each sample was transferred to the first and seventh well on each row on a 96 well plate (Nunclon sterile 96 well plate with lid, Thermo Fischer Scientific, Waltham, Mass.). Two identical plates were made each time, one for light treatment and one for dark controls. The plates containing E. faecalis or S. aureus samples were incubated for 10 min (37° C.), irradiated with blue light for 10 min (corresponding to 9.5 J/cm^2±10%) and incubated again for 10 min (37° C.). The plates containing E. coli samples were incubated for 30 min (37° C.), irradiated with blue light for 30 min (corresponding to 27 J/cm^2±10%) and incubated again for 30 min (37° C.). The plates containing the dark controls were treated similarly, but covered with aluminium foil during the irradiation period and placed beside the irradiation chamber. […] After treatment, the samples were diluted according to the 6×6 drop plate procedure, modified to 4×4 (each treatment was performed with four parallels). A volume of 15 μl from each dilution was then plated onto TSB agar plates, left to dry for a few minutes and incubated overnight (37° C.). Viable colony forming units (CFU)/ml were calculated by counting the CFUs, multiplying with the dilution factor and dividing by the application volume.
(§3) Briefly, the components of each NADES (see Table 7) were mixed and dissolved in a round flask with 50 ml of warm water (˜50° C.) before evaporation of the solvent at 45° C. for 15 min with a rotatory evaporator. TMAP (Frontier Scientific, Inc., Logan, Utah, USA) was then added to each NADES. […] The final concentration of TMAP was 1 nM. Samples of TMAP were also prepared in purified water (MilliQ) to be 1 nM after dilution 1:200 with PBS (pH 7.4, Lonza, Verviers, Belgium) or with a 6.8 mM citric acid solution (pH ˜4) and bacterial suspension.
(§4) TCPP (Frontier Scientific, Inc., Logan, Utah, USA) was added to each NADES. […] The final TCPP concentrations were 0.5 nM-1 μM. Samples of TCPP were also prepared in ethanol to be 1 nM-1 μM after dilution 1:200 with PBS (pH 7.4, Lonza, Verviers, Belgium) or with a 6.8 mM citric acid solution (pH ˜4) and bacterial suspension.

[2] = system: Enterococcus faecalis (ATCC 19433); assay: as above; type: cell-based
Method: as §1, §2, §3, §4

[3] = system: Escherichia coli (ATCC 25922); assay: Bacterial studies, blue light 27 J/cm^2 or dark, drop plate CFU (Examples 4-6); type: cell-based; settings: for surviving colony forming units / surviving colony forming units per ml: E. coli
Method: as §1, §2, §3, §4

[4] = Polarity (ENR) testing with Nile red; type: physicochemical; settings: Nile red absorption maximum
Method: Polarity (ENR) testing of NADES was performed with Nile red (NR) as a solvatochromatic probe. A small amount of NR was added to each deep eutectic solvent. The recorded absorption maximum (λmax) of NR was applied in the formula ENR (kcal/mol^−1)=hcλmaxNA=28591/λmax where h is Planck's constant, c is the velocity of light and NA is Avogadro's number (Ogihara W, et al., Chem Lett 2004; 33: 1414-1415; Saxena R, et al., Chem Phys Lipids 2014; 183: 1-8).

[5] = system: C. albicans (ATCC CRM-10231); assay: Antifungal toxicity studies, blue light 27 J/cm^2 or dark (Example 8); type: cell-based, Candida albicans
Method: Briefly, the components of each NADES (see Table 13) were mixed and dissolved in a round flask with 50 ml of warm water ( 50° C.) before evaporation of the solvent at 45° C. for 15 min with a rotatory evaporator. The pure […] 35 and NADES 39 were mixed undiluted or after dilution 1:50 with phosphate buffered saline (PBS, Lonza, Verviers, Belgium) with the yeast suspension (1:1) in the toxicity studies. […] The concentrations of the excipients were the same as in the respective NADES after evaporation of unbound water. The solutions were diluted totally 1:1 or 1:100 with PBS and yeast suspension in the toxicity studies. […] The overnight cultures were centrifuged (4000 g, 22° C., 10 min), the medium replaced and diluted with PBS to OD600 0.1.

[6] = system: S. epidermidis (ATCC 35984); assay: Phototoxicity studies, blue light 9.5 J/cm^2 or dark (Example 7); type: cell-based, Staphylococcus epidermidis
Method: as §2
(§5) The concentrations were adjusted give a final concentration of 1-20 nM porphyrin in the bacterial suspension after dilution with PBS (see Table 9). Aqueous solutions of 2.7 M citric acid, 2.3 M xylitol, 2.5 M sucrose, 5 M choline chloride and pure NADES, respectively, were used to investigate the toxicity of the individual compounds and NADES without a photosensitiser. The concentrations of the excipients were the same as in the respective NADES after evaporation of unbound water. The solutions were diluted totally 1:200 (or more) in the bacterial studies.
(§6) The treatments were performed with four parallels.
(§7) Gram-positive bacteria are generally considered to be more susceptible to photodynamic therapy than Gram-negative bacteria. Therefore, S. epidermidis was incubated for 10 min (37° C.), irradiated with blue light for 10 min (9.5 J/cm^2) and incubated again for 10 min while K. pneumoniae and P. aeruginosa were incubated for 30 min (37° C.), irradiated with blue light for 30 min (27 J/cm^2) and incubated again for 30 min.

[7] = system: P. aeruginosa (ATCC 9027); assay: Phototoxicity studies, blue light 27 J/cm^2 or dark (Example 7); type: cell-based, Pseudomonas aeruginosa; settings: for % survival (27 J/cm^2) / % survival (dark): ±SD, n = 4
Method: as §2, §5, §6, §7

[8] = system: K. pneumoniae (ATCC 31844); assay: as above; type: cell-based, Klebsiella pneumoniae; settings: ±SD, n = 4; for % survival (27 J/cm^2): Dilution 1:200, blue light; for % survival (dark): Dilution 1:200, no irradiation
Method: as §2, §5, §6, §7

[9] = 1 nM TMAP in the citric acid solution, light
[10] = 1 nM TMAP in the diluted NADES 14, light
[11] = Dilution 1:200, blue light, ±SD, n = 4
[12] = Dilution 1:200, no irradiation, ±SD, n = 4

## O=C(O)CC(O)C(=O)O (racemic) [Malic acid, DL-malic acid]
[1]
  toxicity / eradication of S. aureus: toxic
  toxicity to S. aureus: not toxic
[2]; dilution 1:1 and 1:100 with PBS, blue light
  photoinactivation of E. faecalis: complete photoinactivation
[3]; 2.1 M solution, 1:1 dilution and 1:100 dilution
  toxicity to E. coli: highly toxic

## O [water]
[4]
  ENR: 48.2 kcal/mol

## C[N+](C)(C)CCO.[Cl-] [Choline chloride]
[5]
  reduction in viable C. albicans: No significant reduction
[2]
  toxicity of individual NADES component to E. faecalis: not toxic
[3]
  toxicity of NADES 26 components to E. coli: non-toxic
[6]
  % survival (9.5 J/cm^2): 124 ± 7%
  % survival (dark): 104 ± 12%

## tetra-(4-trimethylanilinum)-porphine tetrachloride [TMAP]
[7]; 1 nM or 5 nM TMAP in PBS
  phototoxicity to P. aeruginosa: not phototoxic
[5]
  toxicity to C. albicans: not toxic
[2]; 1 nM TMAP in NADES 14 (final dilution 1:400), E. faecalis
  increase of phototoxicity compared to the citric acid solution: 35 times
[3]; 1 nM TMAP in NADES 35, dilution 1:800 with PBS
  viable E. coli after photodynamic treatment: no viable
[3]; 1 nM TMAP in PBS, p>0.05
  phototoxicity to E. coli: not enough to make this porphyrin significantly phototoxic
[3]; 1 nM TMAP in neutral NADES 26 (1:200), p>0.05
  phototoxicity to E. coli: not enough to make this porphyrin significantly phototoxic
[3]; 1 nM TMAP in neutral NADES 39 (1:100), p>0.05
  phototoxicity to E. coli: not enough to make this porphyrin significantly phototoxic
[3]; [9]
  surviving colony forming units: 0.2%
  surviving colony forming units per ml: 10 000 colony forming units per ml
[3]; [10]
  surviving colony forming units: 0.2%
  surviving colony forming units per ml: 10 000 colony forming units per ml
[6]
  photoinactivation of S. epidermidis: did not result in complete photoinactivation

## OC[C@H]1O[C@@](CO)(O[C@H]2O[C@H](CO)[C@@H](O)[C@H](O)[C@H]2O)[C@@H](O)[C@@H]1O [Sucrose]
[7]; Dilution 1:200, blue light
  % survival (27 J/cm^2): 98 ± 19%
[7]; Dilution 1:200, no irradiation
  % survival (dark): 204 ± 22%
[5]; 2.1 M fructose, […] xylitol, […] sucrose, 5 M choline chloride diluted 1:1 or 1:100, dark or light, p>0.05
  reduction in viable C. albicans: No significant reduction
[8]
  % survival (27 J/cm^2): 84 ± 18%
  % survival (dark): 124 ± 9%
[6]; [11]
  % survival (9.5 J/cm^2): 134 ± 14%
[6]; [12]
  % survival (dark): 113 ± 5%

## O=C(O)CC(O)(CC(=O)O)C(=O)O [Citric acid]
[7]; Dilution 1:400, blue light
  % survival (27 J/cm^2): 6 ± 2%
[7]; Dilution 1:400, no irradiation
  % survival (dark): 37 ± 9%
[7]; individual components of NADES 35, dilution 1:800
  toxicity to P. aeruginosa: not toxic at all
[5]; 2.7 M diluted 1:1
  reduction in viable C. albicans after incubation in the dark: slight, though significant, reduction
[5]; 2.7 M diluted 1:1, 27 J/cm^2 blue light
  reduction in viable C. albicans after light treatment: 73±8%
[1]
  toxicity / eradication of S. aureus: complete eradication
  toxicity to S. aureus: not toxic anymore
[2]; 2.7 M solution, dilution ratios 1:1 up to 1:100
  toxicity to E. faecalis: toxic
[2]; dilution 1:200, total treatment 30 min
  toxicity to E. faecalis: did not reduce the number of viable colony forming units
[3]; dilution 1:1, with and without blue light
  toxicity / eradication of E. coli: very toxic
[3]; dilution 1:100 (up to 1:100) with PBS, blue light
  phototoxicity to E. coli: killed all the bacteria present
[8]
  % survival (27 J/cm^2): 145 ± 2%
  % survival (dark): 38 ± 18%
[6]; [11]
  % survival (9.5 J/cm^2): 0.1 ± 0.0%
[6]; [12]
  % survival (dark): 0.7 ± 0.3%
